In patent US11674162B2, “Selective advantage in fermentation” (Ginkgo Bioworks, Inc., priority 2014, dated 2023):

Assays:
[1] = system: NS103; experiment: Growth progress in MOPS defined medium with different nitrogen sources; type: cell-based, Escherichia coli; conditions: strain NS103, 0.25 mM as sole nitrogen source
Experimental: (§1) Vector and strain construction was as described in Examples 1-4. All vectors contain the ampicillin resistance gene, and 100 ug/mL ampicillin was added to all culture medium. These strains were grown in MOPS defined medium with different nitrogen sources.
(§2) An average of all four strains grown on different ammonium chloride concentrations from 0 to 1.5 mM is also shown as a standard curve for growth with limiting nitrogen. NS91 grown on melamine is similar to the 0 mM ammonium chloride control.
(§3) An average of all four strains grown on different ammonium chloride concentrations from 0 to 1.5 mM is also shown as a standard curve for growth with limiting nitrogen. NS91 grown on ammeline is similar to the 0 mM ammonium chloride control.
(§4) Cultures were grown aerobically at 37° C. with 100 mg/L ampicillin. Pre-cultures were grown in LB media with 100 mg/L ampicillin, washed once with an equal volume of MOPS media containing no nitrogen, and inoculated at 5% v/v of the final fermentation volume. The content of the MOPS medium is outlined in Table 9.

[2] = system: NS91; experiment: as above; type: cell-based, Escherichia coli; conditions: for ammonium chloride concentration giving similar growth: strain NS91 (control), 0.25 mM as sole nitrogen source; for growth with the compound as nitrogen source: control strain NS91, MOPS medium
Experimental: as §1, §2, §3, §4

[3] = system: NS91; experiment: Maximum growth rate on ammeline as sole nitrogen source; type: cell-based, Escherichia coli; conditions: strain NS91 (control), 0.5 mM ammeline as sole nitrogen source
Experimental: (§5) Strains can also be selected for improved utilization of melamine derived nitrogen sources, in one example NS88 was passaged for 11 serial transfers in MOPS defined medium with 0.5 mM ammeline as sole nitrogen source. After the final passage, single colonies were isolated, and one was designated as NS93. NS93 and NS91 were grown overnight in medium with 0.5 mM ammonium chloride as sole nitrogen source, and then inoculated in medium with 0.5 mM ammeline as sole nitrogen source.

[4] = system: NS93; experiment: as above; type: cell-based, Escherichia coli; conditions: strain NS93, 0.5 mM ammeline as sole nitrogen source
Experimental: as §5

[5] = system: NS99; experiment: Optical density after 72 hours in defined YNB medium with different nitrogen sources; type: cell-based, Saccharomyces cerevisiae; conditions: strain NS99, 10 mM nitrogen source, aerobic 30° C.
Experimental: (§6) Strains NS98 and NS99 are industrial S. cereviaie strains carrying plasmids pNC96 (hyg^R, and a codon optimized trzE from Rhodococcus sp. MEL and pNC97 (hyg^R, and a codon optimized trzE from Rhizobium leguminosarum), respectively. Strain NS100 is the same industral S. cerevisiae stain carrying plasmid pNC67 (hyg^R, nat^R) which serves as a control strain.
(§7) Strains NS98, NS99, and NS100 were grown in defined YNB medium with 10 mM urea and 100 μg/mL hygromycin to stationary phase aerobically at 30° C. 1/1000 v/v inoculations were then made into the same defined medium with either 10 mM urea, 10 mM biuret, or no additional nitrogen and grown under the same conditions.

[6] = system: NS98; experiment: as above; type: cell-based, Saccharomyces cerevisiae; conditions: strain NS98, 10 mM nitrogen source, aerobic 30° C.
Experimental: as §6, §7

[7] = system: NS100; experiment: as above; type: cell-based, Saccharomyces cerevisiae; conditions: strain NS100 (control)
Experimental: as §7
(§8) Additionally, strains NS100, NS101, NS111, and NS112 were grown in defined YNB medium with 10 mM urea and 100 μg/mL hygromycin to stationary phase aerobically at 30° C. 1/1000 v/v inoculations were then made into the same defined medium with either 10 mM urea, 10 mM cyanamide, or no additional nitrogen and grown under the same conditions.

[8] = system: NS90; experiment: Growth progress in MOPS defined medium with different nitrogen sources; type: cell-based, Escherichia coli; conditions: strain NS90, 1 mM nitrogen source
Experimental: as §1, §4

[9] = system: NS101; experiment: Growth in rich YPD medium with and without cyanamide (FIG. 24); type: cell-based, Saccharomyces cerevisiae; conditions: rich YPD medium with 10 mM cyanamide, 30° C.
Experimental: The optical density of NS100 and NS101 grown in rich YPD medium with 100 μg/mL hygromycin and with and without 10 mM cyanamide was assessed as follows. NS100 and NS101 were grown overnight in YNB medium, and inoculated at 3.33% v/v. […] Thus, cyanamide, in addition to functioning as a sole source of nitrogen, may also act as a deterrent for microbial growth. Data are averages of 3 replicate wells in a 96 well plate; 150 μL per well. 30° C., YPD medium or YPD medium with 10 mM cyanamide. Inoculation was with 5 μL of culture pregrown for 24 hours in the YNB medium with urea as nitrogen source (FIG. 24).

[10] = system: NS101; experiment: Growth progress in defined medium, 96 well plate (FIG. 21); type: cell-based, Saccharomyces cerevisiae; conditions: strain NS101, 10 mM, YNB medium, 30° C.
Experimental: (§9) The optical density of NS100 and NS101 grown in defined medium with different nitrogen sources was assessed as follows. NS100 and NS101 were grown overnight in YPD medium, washed once in an equal volume of sterile water, and inoculated at 3.33% v/v. […] Data are averages of 3 replicate wells in a 96 well plate; 150 μL per well. 30° C., YNB medium contained 20 g/L glucose, 1.7 g/L YNB base medium without amino acids or ammonium sulfate, 5 g/L sodium sulfate, 100 μg/mL hygromycin, and either 10 mM urea, 10 mM cyanamide, or no nitrogen source. Inoculation was with 5 μL of culture pregrown for 24 hours in the same medium with urea as nitrogen source (FIG. 21).

[11] = system: NS100; experiment: as above; type: cell-based, Saccharomyces cerevisiae; conditions: strain NS100 (control), 10 mM, YNB medium, 30° C.
Experimental: as §9

[12] = system: NS101; experiment: Optical density after 72 hours in defined YNB medium with different nitrogen sources; type: cell-based, Saccharomyces cerevisiae; conditions: strain NS101 (cah), 10 mM nitrogen source
Experimental: as §8

[13] = system: NS111; experiment: as above; type: cell-based, Saccharomyces cerevisiae; conditions: strain NS111 (cah), 10 mM nitrogen source
Experimental: as §8

[14] = system: NS112; experiment: as above; type: cell-based, Saccharomyces cerevisiae; conditions: strain NS112 (control), 10 mM nitrogen source
Experimental: as §8

[15] = system: E. coli strains containing pNC121; experiment: Growth on melamine as sole nitrogen source (FIG. 18); type: cell-based, Escherichia coli; conditions: 0.5 mM; E. coli K12, MG1655, B and Crooks strains containing pNC121
Experimental: FIGS. 16, 17, and 18 show E. coli strains derived from E. coli K12, E. coli MG1655, E. coli B, and E. coli Crooks (C) containing either pNC121 with the complete melamine utilization pathway, or pNC53, a control vector. See Tables 7 and 8 for strain details. All the strains containing pNC121 are able to grow on 0.5 mM melamine as sole nitrogen source (FIG. 18).
as §4

[16] = system: NS88; experiment: Growth progress in MOPS defined medium with different nitrogen sources; type: cell-based, Escherichia coli; conditions: strain NS88, 1 mM nitrogen source
Experimental: as §1, §4

[17] = Table 10, 10 mM nitrogen source
[18] = Table 11, 10 mM nitrogen source

## Nc1nc(N)[nH]c(=O)n1 [ammeline, Ammeline]
[1]
  ammonium chloride concentration giving similar growth: ~0.5 mM
[2]
  ammonium chloride concentration giving similar growth: ~0 mM
[3]
  maximum growth rate: 0.024 h⁻¹
[4]
  maximum growth rate: 0.087 h⁻¹

## NC(=O)NC(N)=O [biuret, Biuret]
[5]
  Optical Density 600 nm: 2.18
[6]
  Optical Density 600 nm: 2.55
[7]; [17]
  Optical Density 600 nm: 1.21
[8]
  ammonium chloride concentration giving comparable optical density: ~3 mM
[2]
  growth with the compound as nitrogen source: does not grow

## N#CN [cyanamide, Cyanamide]
[9]
  lag phase of NS101 relative to NS100: shorter lag phase
[7]; [18]
  Optical Density 600 nm: 0.05
[10]
  optical density reached: comparable to that with urea
[11]
  optical density reached: comparable to that with no nitrogen present in the medium
[12]
  Optical Density 600 nm: 4.66
[13]
  Optical Density 600 nm: 3.09
[14]
  Optical Density 600 nm: 0.15

## Nc1nc(N)nc(N)n1 [melamine, Melamine]
[15]
  growth on the compound as sole nitrogen source: able to grow
[16]
  ammonium chloride concentration giving comparable optical density: ~2 mM
[2]
  growth with the compound as nitrogen source: does not grow
  ammonium chloride concentration giving similar growth: ~0 mM

## NC(N)=O [urea]
[5]
  Optical Density 600 nm: 5.26
[6]
  Optical Density 600 nm: 5.09
[7]; [17]
  Optical Density 600 nm: 5.22
[7]; [18]
  Optical Density 600 nm: 3.12
[12]
  Optical Density 600 nm: 3.60
[13]
  Optical Density 600 nm: 3.68
[14]
  Optical Density 600 nm: 3.05
